US8637252B2, “Methods and compositions for determining altered susceptibility of HIV-1 to anti-HIV drugs” (Monogram Biosciences, Inc., priority 2011, dated 2014)
Values joined by “and” are separate entries in the source; they are usually repeats but may differ in a detail not shown here. Equal values may be shown once.

Legend:
[1] = tested on: HIV-1 (patient-derived POL segment); test: phenotypic drug resistance test, resistance test vectors with patient-derived POL segment (entire pol gene), luciferase, 293 cells; assay type: cell-based
From the text: (§1) Patient-derived segment(s) corresponding to the entire pol gene, encoding HIV protease, reverse transcriptase (including RNAse H), and integrase (hereinafter “POL”), the portion of pol encoding amino acids 1-305 of reverse transcriptase (hereinafter “PR-RT”), the portion of pol encoding amino acids 319-440 of reverse transcriptase (including RNAse H), and integrase (hereinafter “RHIN”), were amplified by the reverse transcription-polymerase chain reaction method (RT-PCR) using viral RNA isolated from viral particles present in the plasma or serum of HIV-infected individuals as described below. The portion of pol encoding protease, amino acids 1-531 of reverse transcriptase (including RNase H) (hereinafter “PRRT-RH”), or the portion of pol encoding protease, reverse transcriptase (including RNAse H) and integrase (hereinafter “PRRT-RHIN”), were assembled from amplicons described above by standard recombinant DNA techniques involving a KpnI restriction site at amino acid 400 or a Pin A1 site at amino acid 315.
(§2) Virus was pelleted by centrifugation at 20,400×g for 60 min from plasma (typically, 1 ml) prepared from blood samples collected in evacuated tubes containing either EDTA, acid-citrate dextrose, or heparin as an anticoagulant. Virus particles were disrupted by resuspending the pellets in 200 [1.1 of lysis buffer (4 M guanidine thiocyanate, 0.1 M Tris HCl (pH 8.0), 0.5% sodium lauryl sarcosine, 1% dithiothreitol). RNA was extracted from viral lysates by using oligo(dT) linked to magnetic beads (Dynal, Oslo, Norway). Reverse transcription was performed with Superscript III (Invitrogen) at 50 degrees for 1 hour using primer 1.
(§3) From the resultant cDNA either POL or RHIN sequences were amplified using the Advantage High Fidelity PCR kit (BD Biosciences; Clontech). POL amplification products are made using forward Primer 3 containing an Apal site and reverse Primer 4 containing a Xho 1 site. RHIN amplification products are made using forward Primer 2 containing a P1NA1 site and reverse Primer 4 containing a Xho 1 site.
(§4) A retroviral vector designed to measure antiretroviral drug susceptibility was constructed by using an infectious molecular clone of HIV-1. The vector, referred to herein as an indicator gene viral vector (IGVV), is replication defective and contains a luciferase expression cassette inserted within a deleted region of the envelope (env) gene. The IGVV is described in U.S. Pat. No. 5,837,464 (International Publication Number WO 97/27319) which is hereby incorporated by reference in its entirety. This retroviral vector was further modified to allow insertion of either the entire pol gene (POL) or the portion of poi encoding amino acids 319-440 of reverse transcriptase, the RNase H portion of reverse transcriptase, and integrase (REIN) by engineering an Xho l restriction enzyme recognition site into vif. Prior to doing this, an Xho 1 site in nef was deleted. Resistance Test vectors (RTVs) were constructed by incorporating amplified POL or RHIN into the IGVV by using Apal and Xhol or PinAI and Xho 1 restriction sites respectively. RTVs were prepared as libraries (pools) in order to capture and preserve the pol or RHIN sequence heterogeneity of the virus in the patient. POL amplification products were digested with Apal and Xhol, purified by agarose gel electrophoresis, and ligated to ApaI- and Xhol-digested IGVV DNA. RHIN amplification products were digested with PinAI and Xho/, purified by agarose gel electrophoresis, and ligated to PinAI and Xhol-digested IGVV DNA. Ligation reactions were used to transform competent Escherichia coli (Invitrogen, Carlsbad, Calif.). An aliquot of each transformation was plated onto agar, and colony counts were used to estimate the number of patient-derived segments represented in each RTV library. RTV libraries that comprised less than 50 members are not considered representative of the patient virus. […]

[2] = tested on: HIV-1 (patient-derived RHIN segment); test: phenotypic drug resistance test, resistance test vectors with patient-derived RHIN segment, luciferase, 293 cells; assay type: cell-based
From the text: as §1, §2, §3, §4

[3] = Sample 47 (K103K/N, V106V/A, Y181Y/C, G190G/A)
[4] = Sample 58 (K103N, Y181Y/C, G190G/A)
[5] = Sample 62 (K103H, P225P/H, T369T/I)
[6] = Sample 90 (K103K/N, Y181C, G190A)

SMILES: CC(C)Nc1cccnc1N1CCN(C(=O)c2cc3cc(NS(C)(=O)=O)ccc3[nH]2)CC1 [DLV, delavirdine]
- fold change in IC50, pol ([1]; Sample 31 (K103N)): 28.0 fold
- pol/PR-RT ratio ([1]; Sample 31 (K103N)): 1.7
- fold change in IC50, pol ([1]; Sample 33 (K103S)): 5.7 fold
- pol/PR-RT ratio ([1]; Sample 33 (K103S)): 0.7
- fold change in IC50, pol ([1]; Sample 34): 0.4 fold
- pol/PR-RT ratio ([1]; Sample 34): 1.0
- fold change in IC50, pol ([1]; Sample 35 (K103H)): 5.4 fold
- pol/PR-RT ratio ([1]; Sample 35 (K103H)): 0.8
- fold change in IC50, pol ([1]; Sample 36 (K103K/W)): 1.9 fold
- pol/PR-RT ratio ([1]; Sample 36 (K103K/W)): 0.2
- fold change in IC50, pol ([1]; Sample 38 (K103N)): 66.0 fold
- pol/PR-RT ratio ([1]; Sample 38 (K103N)): 0.5
- fold change in IC50, pol ([1]; Sample 39 (T369A)): 1.2 fold
- pol/PR-RT ratio ([1]; Sample 39 (T369A)): 5.1
- fold change in IC50, pol ([1]; Sample 42 (G190G/A)): 0.2 fold
- pol/PR-RT ratio ([1]; Sample 42 (G190G/A)): 0.5
- fold change in IC50, pol ([1]; Sample 45): 0.1 fold
- pol/PR-RT ratio ([1]; Sample 45): 0.7
- fold change in IC50, pol [1, 3]: 5.4 fold
- pol/PR-RT ratio [1, 3]: 0.9
- fold change in IC50, pol ([1]; Sample 50 (K103N)): 65.4 fold
- pol/PR-RT ratio ([1]; Sample 50 (K103N)): 0.3
- fold change in IC50, pol ([1]; Sample 51): 0.3 fold
- pol/PR-RT ratio ([1]; Sample 51): 0.9
- fold change in IC50, pol ([1]; Sample 52): 2.7 fold
- pol/PR-RT ratio ([1]; Sample 52): 0.8
- fold change in IC50, pol [1, 4]: 250.0 fold
- pol/PR-RT ratio [1, 4]: 1.7
- fold change in IC50, pol [1, 5]: 140.0 fold and 140.00 fold
- pol/PR-RT ratio [1, 5]: 8.8
- fold change in IC50, pol ([1]; Sample 64 (T369T/A)): 0.3 fold
- pol/PR-RT ratio ([1]; Sample 64 (T369T/A)): 0.2
- fold change in IC50, pol ([1]; Sample 69): 1.8 fold
- pol/PR-RT ratio ([1]; Sample 69): 1.2
- fold change in IC50, pol ([1]; Sample 72): 1.2 fold
- pol/PR-RT ratio ([1]; Sample 72): 1.4
- fold change in IC50, pol ([1]; Sample 80 (K103K/N, Y181Y/C)): 22.0 fold
- pol/PR-RT ratio ([1]; Sample 80 (K103K/N, Y181Y/C)): 0.3
- fold change in IC50, pol ([1]; Sample 81 (K103N, P225H)): 9.5 fold
- pol/PR-RT ratio ([1]; Sample 81 (K103N, P225H)): 0.8
- fold change in IC50, pol ([1]; Sample 84): 0.5 fold
- pol/PR-RT ratio ([1]; Sample 84): 0.6
- fold change in IC50, pol ([1]; Sample 85): 69.0 fold
- pol/PR-RT ratio ([1]; Sample 85): 2.7
- fold change in IC50, pol ([1]; Sample 87): 0.7 fold
- pol/PR-RT ratio ([1]; Sample 87): 0.9
- fold change in IC50, pol ([1]; Sample 89 (L1001, K103N)): 250.0 fold
- pol/PR-RT ratio ([1]; Sample 89 (L1001, K103N)): 1.0
- fold change in IC50, pol [1, 6]: 4.8 fold
- pol/PR-RT ratio [1, 6]: 1.1
- fold change in IC50, pol ([1]; Sample 92): 0.8 fold
- pol/PR-RT ratio ([1]; Sample 92): 0.8
- fold change in IC50, pol ([1]; Sample 93): 0.2 fold
- pol/PR-RT ratio ([1]; Sample 93): 0.6
- fold change in IC50, RHIN ([2]; Sample 31 (K103N)): 1.1 fold
- fold change in IC50, RHIN ([2]; Sample 33 (K103S)): 0.7 fold
- fold change in IC50, RHIN ([2]; Sample 34): 0.7 fold
- fold change in IC50, RHIN ([2]; Sample 35 (K103H)): 0.8 fold
- fold change in IC50, RHIN ([2]; Sample 36 (K103K/W)): 0.9 fold
- fold change in IC50, RHIN ([2]; Sample 38 (K103N)): 0.5 fold
- fold change in IC50, RHIN ([2]; Sample 39 (T369A)): 1.2 fold
- fold change in IC50, RHIN ([2]; Sample 42 (G190G/A)): 0.5 fold
- fold change in IC50, RHIN ([2]; Sample 45): 1.0 fold
- fold change in IC50, RHIN [2, 3]: 0.6 fold
- fold change in IC50, RHIN ([2]; Sample 50 (K103N)): 0.4 fold
- fold change in IC50, RHIN ([2]; Sample 51): 0.4 fold
- fold change in IC50, RHIN ([2]; Sample 52): 0.9 fold
- fold change in IC50, RHIN [2, 4]: 1.5 fold
- fold change in IC50, RHIN [2, 5]: 3.4 fold and 3.36 fold
- fold change in IC50, RHIN ([2]; Sample 64 (T369T/A)): 0.3 fold
- fold change in IC50, RHIN ([2]; Sample 69): 0.7 fold
- fold change in IC50, RHIN ([2]; Sample 72): 1.7 fold
- fold change in IC50, RHIN ([2]; Sample 80 (K103K/N, Y181Y/C)): 0.58 fold
- fold change in IC50, RHIN ([2]; Sample 81 (K103N, P225H)): 0.9 fold
- fold change in IC50, RHIN ([2]; Sample 84): 0.4 fold
- fold change in IC50, RHIN ([2]; Sample 85): 1.4 fold
- fold change in IC50, RHIN ([2]; Sample 87): 1.3 fold
- fold change in IC50, RHIN ([2]; Sample 89 (L1001, K103N)): 1.5 fold
- fold change in IC50, RHIN [2, 6]: 0.6 fold
- fold change in IC50, RHIN ([2]; Sample 92): 0.3 fold
- fold change in IC50, RHIN ([2]; Sample 93): 0.7 fold
